Results taken from patent US9302999B2, “Substituted triazoles as herbicides” (E. I. DU PONT DE NEMOURS AND COMPANY, priority 2012, dated 2016).

Legend:
Assay type in all cases: in vivo
[1] = test system: barnyardgrass (Echinochloa crus-galli); assay: Test A pre-/postemergence: barnyardgrass; conditions: for Barnyardgrass plant response rating: Postemergence; for Plant response rating, Barnyardgrass: Preemergence
Method in brief: (§1)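 Seeds were sown in loam/sand blend and sprayed preemergence (directed soil spray) and, simultaneously, postemergence at 2–10 cm, one- to two-leaf stage, using compounds in non-phytotoxic solvent with surfactant. After ~10 days in greenhouse, injury was rated visually versus untreated controls, 0 (no effect) to 100 (complete control).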

[2] = test system: crabgrass, large (large crabgrass, Digitaria sanguinalis); assay: Test A pre-/postemergence: crabgrass, large; conditions: for Crabgrass, Large plant response rating: Postemergence; for Plant response rating, Crabgrass, Large: Preemergence
Method in brief: as §1

[3] = test system: foxtail, giant (giant foxtail, Setaria faberii); assay: Test A pre-/postemergence: foxtail, giant; conditions: for Foxtail, Giant plant response rating: Postemergence; for Plant response rating, Foxtail, Giant: Preemergence
Method in brief: as §1

[4] = test system: morningglory (Ipomoea spp.); assay: Test A pre-/postemergence: morningglory; conditions: for Morningglory plant response rating: Postemergence; for Plant response rating, Morningglory: Preemergence
Method in brief: as §1

[5] = test system: pigweed (Amaranthus retroflexus); assay: Test A pre-/postemergence: pigweed; conditions: for Pigweed plant response rating: Postemergence; for Plant response rating, Pigweed: Preemergence
Method in brief: as §1

[6] = test system: velvetleaf (Abutilon theophrasti); assay: Test A pre-/postemergence: velvetleaf; conditions: for Velvetleaf plant response rating: Postemergence; for Plant response rating, Velvetleaf: Preemergence
Method in brief: as §1

[7] = test system: wheat (Triticum aestivum); assay: Test A pre-/postemergence: wheat; conditions: for Wheat plant response rating: Postemergence; for Plant response rating, Wheat: Preemergence
Method in brief: as §1

corn (Zea mays) = assay: Test A pre-/postemergence: corn; conditions: for Corn plant response rating: Postemergence; for Plant response rating, Corn: Preemergence
Method in brief: as §1

rice (Oryza sativa) = assay: Test C flooded paddy test: rice; conditions: scale 0 to 100 (0 no effect, 100 complete control)
Method in brief: (§2)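 Plants at 2-leaf stage in pots flooded 3 cm above soil; compounds applied directly into the paddy water, depth maintained. Visual rating against controls after 13–15 days in greenhouse, scale 0 (no effect) to 100 (complete control).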

[8] = test system: sedge, umbrella (small-flower umbrella sedge, Cyperus difformis); assay: Test C flooded paddy test: sedge, umbrella; conditions: scale 0 to 100 (0 no effect, 100 complete control)
Method in brief: as §2

[9] = test system: ducksalad (Heteranthera limosa); assay: Test C flooded paddy test: ducksalad; conditions: scale 0 to 100 (0 no effect, 100 complete control)
Method in brief: as §2

[10] = test system: barnyardgrass (Echinochloa crus-galli); assay: Test C flooded paddy test: barnyardgrass; conditions: scale 0 to 100 (0 no effect, 100 complete control)
Method in brief: as §2

[11] = 125 g ai/ha, 0 to 100 scale, 0 is no effect, 100 is complete control
[12] = 500 g ai/ha, visual rating on 0 to 100 scale (0 no effect, 100 complete control), approximately ten days
[13] = 125 g ai/ha, 0 to 100 scale (0 no effect, 100 complete control)
[14] = 500 g ai/ha, 0 to 100 scale, 0 is no effect, 100 is complete control
[15] = Flood (flooded paddy test), 125 g ai/ha, visual rating after 13 to 15 days
[16] = Flood (flooded paddy test), 250 g ai/ha, visual rating after 13 to 15 days

Cc1nn(-c2ccc(C(F)(F)F)cc2)nc1Oc1ccccc1Cl [Compound 82]
0: Barnyardgrass plant response rating [1, 11] | Barnyardgrass plant response rating [1, 12] | Plant response rating, Barnyardgrass [1, 13] | Plant response rating, Barnyardgrass [1, 14] | Crabgrass, Large plant response rating [2, 11] | Crabgrass, Large plant response rating [2, 12] | Plant response rating, Crabgrass, Large [2, 13] | Plant response rating, Crabgrass, Large [2, 14] | Foxtail, Giant plant response rating [3, 11] | Foxtail, Giant plant response rating [3, 12] | Plant response rating, Foxtail, Giant [3, 13] | Plant response rating, Foxtail, Giant [3, 14] | Morningglory plant response rating [4, 11] | Morningglory plant response rating [4, 12] | Plant response rating, Morningglory [4, 13] | Plant response rating, Morningglory [4, 14] | Pigweed plant response rating [5, 11] | Pigweed plant response rating [5, 12] | Plant response rating, Pigweed [5, 13] | Plant response rating, Pigweed [5, 14] | Velvetleaf plant response rating [6, 11] | Velvetleaf plant response rating [6, 12] | Plant response rating, Velvetleaf [6, 13] | Plant response rating, Velvetleaf [6, 14] | Wheat plant response rating [7, 11] | Wheat plant response rating [7, 12] | Plant response rating, Wheat [7, 13] | Plant response rating, Wheat [7, 14] | Corn plant response rating (corn (Zea mays); [11]) | Corn plant response rating (corn (Zea mays); [12]) | Plant response rating, Corn (corn (Zea mays); [13]) | Plant response rating, Corn (corn (Zea mays); [14]) | Plant response rating, Rice (rice (Oryza sativa); [15]) | Plant response rating, Rice (rice (Oryza sativa); [16]) | Plant response rating, Rice (rice (Oryza sativa); Flood, 31 g ai/ha) | Plant response rating, Rice (rice (Oryza sativa); Flood, 62 g ai/ha) | Plant response rating, Sedge, Umbrella [8, 15] | Plant response rating, Sedge, Umbrella [8, 16] | Plant response rating, Sedge, Umbrella ([8]; Flood, 31 g ai/ha) | Plant response rating, Sedge, Umbrella ([8]; Flood, 62 g ai/ha) | Plant response rating, Ducksalad [9, 15] | Plant response rating, Ducksalad [9, 16] | Plant response rating, Ducksalad ([9]; Flood, 31 g ai/ha) | Plant response rating, Ducksalad ([9]; Flood, 62 g ai/ha) | Plant response rating, Barnyardgrass [10, 15] | Plant response rating, Barnyardgrass [10, 16] | Plant response rating, Barnyardgrass ([10]; Flood, 31 g ai/ha) | Plant response rating, Barnyardgrass ([10]; Flood, 62 g ai/ha)

Cc1nn(-c2ccc(C(F)(F)F)cc2)nc1Oc1ccc(C(F)(F)F)cc1 [Compound 83]
30: Plant response rating, Sedge, Umbrella [8, 16] | Plant response rating, Ducksalad [9, 16]
0: Barnyardgrass plant response rating [1, 11] | Barnyardgrass plant response rating [1, 12] | Plant response rating, Barnyardgrass [1, 13] | Plant response rating, Barnyardgrass [1, 14] | Crabgrass, Large plant response rating [2, 11] | Crabgrass, Large plant response rating [2, 12] | Plant response rating, Crabgrass, Large [2, 13] | Plant response rating, Crabgrass, Large [2, 14] | Foxtail, Giant plant response rating [3, 11] | Foxtail, Giant plant response rating [3, 12] | Plant response rating, Foxtail, Giant [3, 13] | Plant response rating, Foxtail, Giant [3, 14] | Morningglory plant response rating [4, 11] | Morningglory plant response rating [4, 12] | Plant response rating, Morningglory [4, 13] | Plant response rating, Morningglory [4, 14] | Pigweed plant response rating [5, 11] | Pigweed plant response rating [5, 12] | Plant response rating, Pigweed [5, 13] | Plant response rating, Pigweed [5, 14] | Velvetleaf plant response rating [6, 11] | Velvetleaf plant response rating [6, 12] | Plant response rating, Velvetleaf [6, 13] | Plant response rating, Velvetleaf [6, 14] | Wheat plant response rating [7, 11] | Wheat plant response rating [7, 12] | Plant response rating, Wheat [7, 13] | Plant response rating, Wheat [7, 14] | Corn plant response rating (corn (Zea mays); [11]) | Corn plant response rating (corn (Zea mays); [12]) | Plant response rating, Corn (corn (Zea mays); [13]) | Plant response rating, Corn (corn (Zea mays); [14]) | Plant response rating, Ducksalad ([9]; Flood, 31 g ai/ha) | Plant response rating, Barnyardgrass [10, 15] | Plant response rating, Barnyardgrass [10, 16] | Plant response rating, Barnyardgrass ([10]; Flood, 31 g ai/ha) | Plant response rating, Barnyardgrass ([10]; Flood, 62 g ai/ha)
25: Plant response rating, Rice (rice (Oryza sativa); [16])
20: Plant response rating, Rice (rice (Oryza sativa); [15]) | Plant response rating, Rice (rice (Oryza sativa); Flood, 62 g ai/ha) | Plant response rating, Sedge, Umbrella [8, 15] | Plant response rating, Sedge, Umbrella ([8]; Flood, 62 g ai/ha) | Plant response rating, Ducksalad [9, 15] | Plant response rating, Ducksalad ([9]; Flood, 62 g ai/ha)
10: Plant response rating, Rice (rice (Oryza sativa); Flood, 31 g ai/ha) | Plant response rating, Sedge, Umbrella ([8]; Flood, 31 g ai/ha)
